Data from patent US20250145642A1, “BICYCLIC HETEROARENES AND METHODS OF THEIR USE” (Kineta, Inc., priority 2021, published 2025).

Each compound was assayed against full-length human PIKFYVE (N-terminal GST-fusion) (Homo sapiens (Human), UniProt Q9Y2I7, L932S/Q1183K/Q995L/S1033A/S696N/T998S) (assay: PIKfyve biochemical assay (ADP-Glo Kinase assay, Carna Biosciences)). Conditions: ADP-Glo, full-length human GST-PIKFYVE, 10 μM to 3 nM; read-out: hPIKfyve IC50.
Text: (§1) PIKfyve Biochemical Assay. The biochemical PIKfyve inhibition assays were run by Carna Biosciences according to proprietary methodology based on the Promega ADP-Glo™ Kinase assay. A full-length human PIKFYVE [1-2098(end) amino acids and S696N, L932S, Q995L, T998S, S1033A and Q1183K of the protein having the sequence set forth in NCBI Reference Sequence No. NP_055855.2] was expressed as N-terminal GST-fusion protein (265 kDa) using baculovirus expression system. GST-PIKFYVE was purified by using glutathione sepharose chromatography and used in an ADP-Glo™ Kinase assay (Promega). Reactions were set up by adding the test compound solution, substrate solution, ATP solution and kinase solution, each at 4× final concentrations. Reactions were prepared with assay buffer (50 mM MOPS, 1 mM DTT, pH7.2), mixed, and incubated in black 384 well polystyrene plates for 1 hour at room temperature. ADP-Glo™ reagent was then added for 40 minutes, followed by kinase detection reagent for an additional 40 minutes. The kinase activity was evaluated by detecting relative light units on a luminescence plate reader. Samples were run in duplicate from 10 μM to 3 nM. […] IC50 values were calculated from concentration vs % inhibition curves by fitting to a four-parameter logistic curve.
as §1, with “The” for “PIKfyve Biochemical Assay. The”, “accession number” for “the protein having the sequence set forth in NCBI Reference Sequence No.”, “curve. […]” for “curve.”

Sequence of full-length human PIKFYVE (N-terminal GST-fusion) (Q9Y2I7 whole entry S696N/L932S/Q995L/T998S/S1033A/Q1183K, the tested form may be a part): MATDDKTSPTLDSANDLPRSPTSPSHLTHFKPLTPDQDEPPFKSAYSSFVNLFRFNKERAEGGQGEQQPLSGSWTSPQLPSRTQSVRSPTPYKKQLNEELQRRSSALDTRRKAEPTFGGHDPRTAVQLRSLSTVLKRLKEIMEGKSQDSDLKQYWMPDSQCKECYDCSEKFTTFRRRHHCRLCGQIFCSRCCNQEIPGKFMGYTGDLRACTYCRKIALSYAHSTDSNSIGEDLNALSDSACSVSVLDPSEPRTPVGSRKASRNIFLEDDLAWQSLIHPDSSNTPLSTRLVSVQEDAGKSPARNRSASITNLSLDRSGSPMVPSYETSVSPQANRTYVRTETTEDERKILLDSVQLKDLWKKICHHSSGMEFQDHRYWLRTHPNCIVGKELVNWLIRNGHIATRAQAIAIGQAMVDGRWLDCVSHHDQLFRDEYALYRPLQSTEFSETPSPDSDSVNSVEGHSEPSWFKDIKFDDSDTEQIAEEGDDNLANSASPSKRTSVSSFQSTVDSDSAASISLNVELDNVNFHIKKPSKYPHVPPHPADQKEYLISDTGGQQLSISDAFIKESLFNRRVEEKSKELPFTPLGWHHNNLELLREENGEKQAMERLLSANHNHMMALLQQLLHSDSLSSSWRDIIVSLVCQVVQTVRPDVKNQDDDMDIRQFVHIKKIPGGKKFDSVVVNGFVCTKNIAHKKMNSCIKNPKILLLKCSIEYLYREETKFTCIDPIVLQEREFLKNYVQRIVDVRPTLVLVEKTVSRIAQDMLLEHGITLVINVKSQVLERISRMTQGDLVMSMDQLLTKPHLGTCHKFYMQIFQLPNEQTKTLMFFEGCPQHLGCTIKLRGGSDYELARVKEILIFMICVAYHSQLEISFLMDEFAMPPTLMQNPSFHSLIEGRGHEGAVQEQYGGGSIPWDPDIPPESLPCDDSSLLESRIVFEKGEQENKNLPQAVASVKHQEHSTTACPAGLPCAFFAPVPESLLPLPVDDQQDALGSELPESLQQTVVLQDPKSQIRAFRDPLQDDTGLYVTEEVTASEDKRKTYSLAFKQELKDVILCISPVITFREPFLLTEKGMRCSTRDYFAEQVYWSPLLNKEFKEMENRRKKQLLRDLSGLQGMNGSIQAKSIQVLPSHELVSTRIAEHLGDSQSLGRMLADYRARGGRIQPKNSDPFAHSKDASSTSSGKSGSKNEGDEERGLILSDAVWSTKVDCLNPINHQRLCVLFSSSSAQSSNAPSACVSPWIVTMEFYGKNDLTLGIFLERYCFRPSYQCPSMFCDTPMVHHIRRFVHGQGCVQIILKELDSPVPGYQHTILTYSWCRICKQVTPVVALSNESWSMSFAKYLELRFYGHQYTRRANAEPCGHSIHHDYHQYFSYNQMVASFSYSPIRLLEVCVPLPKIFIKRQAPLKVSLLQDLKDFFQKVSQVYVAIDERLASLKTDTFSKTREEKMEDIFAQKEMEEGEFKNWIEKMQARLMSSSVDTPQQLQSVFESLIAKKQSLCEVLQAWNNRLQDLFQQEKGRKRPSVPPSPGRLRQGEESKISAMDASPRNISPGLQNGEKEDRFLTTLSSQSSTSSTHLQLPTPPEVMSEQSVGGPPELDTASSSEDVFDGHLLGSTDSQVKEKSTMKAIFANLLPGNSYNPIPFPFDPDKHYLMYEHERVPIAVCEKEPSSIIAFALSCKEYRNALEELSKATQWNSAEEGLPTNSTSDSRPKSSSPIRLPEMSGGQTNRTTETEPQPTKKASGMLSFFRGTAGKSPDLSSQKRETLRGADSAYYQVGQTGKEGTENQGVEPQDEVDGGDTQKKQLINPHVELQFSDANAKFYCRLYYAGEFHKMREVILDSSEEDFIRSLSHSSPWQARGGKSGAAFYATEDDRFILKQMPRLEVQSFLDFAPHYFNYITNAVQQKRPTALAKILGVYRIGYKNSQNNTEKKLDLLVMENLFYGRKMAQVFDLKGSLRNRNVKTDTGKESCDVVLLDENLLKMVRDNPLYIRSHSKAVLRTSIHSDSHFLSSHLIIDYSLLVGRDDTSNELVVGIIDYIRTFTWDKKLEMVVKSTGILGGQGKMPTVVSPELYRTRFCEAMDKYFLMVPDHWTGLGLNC

Row | SMILES | IC50
1 | N#Cc1ccc(N2CCc3c(OCc4cccnc4)nc(N4CCOCC4)nc32)cc1 [Compound 7, 4-(2-morpholino-4-(pyridin-3-ylmethoxy)-5H-pyrrolo[2,3-d]pyrimidin-7(6H)-yl)benzonitrile] | 10 to 100 nM
2 | Fc1cccc(N2CCc3c(OCc4cccnn4)nc(N4CCOCC4)nc32)c1 [Compound 8, 4-(7-(3-fluorophenyl)-4-(pyridazin-3-ylmethoxy)-6,7-dihydro-5H-pyrrolo[2,3-d]pyrimidin-2-yl)morpholine] | 100 to 1000 nM
3 | c1ccc(N2CCc3c(C4CCOCC4)nc(N4CCOCC4)nc32)cc1 [Compound 86, 4-(7-phenyl-4-(tetrahydro-2H-pyran-4-yl)-6,7-dihydro-5H-pyrrolo[2,3-d]pyrimidin-2-yl)morpholine] | 100 to 1000 nM
4 | c1cncc(N2CCc3c(C4CCOC4)nc(N4CCOCC4)nc32)c1 (stereo not shown) [Compound 89, 4-(7-(pyridin-3-yl)-4-(tetrahydrofuran-3-yl)-6,7-dihydro-6H-pyrrolo[2,3-d]pyrimidin-2-yl)morpholine] | 100 to 1000 nM
5 | CC(C)(O)COc1nc(N2CCOCC2)nc2c1CCN2c1cccnc1 [Compound 19, 2-methyl-1-(2-morpholino-7-(pyridin-3-yl)-6,7-dihydro-5H-pyrrolo[2,3-d]pyrimidin-4-yloxy)propan-2-ol] | 100 to 1000 nM
6 | c1ccc(-n2ccc(N3CCc4c(Oc5cccnc5)nc(N5CCOCC5)nc43)n2)cc1 [Compound 70, 4-(7-(1-phenyl-1H-pyrazol-3-yl)-4-(pyridin-3-yloxy)-6,7-dihydro-5H-pyrrolo[2,3-d]pyrimidin-2-yl)morpholine] | 1000 to 10000 nM
7 | c1cc(-c2nc(N3CCOCC3)nc3c(-c4cnn(C5CC5)c4)c[nH]c23)ccn1 [Compound 140, 4-(7-(1-cyclopropyl-1H-pyrazol-4-yl)-4-(pyridin-4-yl)-5H-pyrrolo[3,2-d]pyrimidin-2-yl)morpholine] | 10 to 100 nM
8 | Cc1cccc(/C=N/Nc2nc(N3CCOCC3)nc3c2CCN3c2cccnc2)c1 [Compound 82, (E)-4-(4-(2-(3-methylbenzylidene)hydrazineyl)-7-(pyridin-3-yl)-6,7-dihydro-6H-pyrrolo[2,3-d]pyrimidin-2-yl)morpholine] | < 10 nM
9 | O=c1ccccn1-c1nc(N2CCOCC2)nc2c1CCN2c1cccnc1 [Compound 52, 1-(2-morpholino-7-(pyridin-3-yl)-6,7-dihydro-5H-pyrrolo[2,3-d]pyrimidin-4-yl)pyridin-2(1H)-one] | 1000 to 10000 nM
10 | c1cncc(N2CCc3c(-c4ccncc4)nc(N4CCOCC4)nc32)c1 [Compound 105, 4-(7-(pyridin-3-yl)-4-(pyridin-4-yl)-6,7-dihydro-5H-pyrrolo[2,3-d]pyrimidin-2-yl)morpholine] | 10 to 100 nM
11 | c1ccc(N2CCc3c(Oc4cccnc4)nc(N4CCOCC4)nc32)cc1 [Compound 53, 4-(7-phenyl-4-(pyridin-3-yloxy)-6,7-dihydro-5H-pyrrolo[2,3-d]pyrimidin-2-yl)morpholine] | 10 to 100 nM
12 | c1ccc(N2CCc3c(Nc4cccnc4)nc(N4CCOCC4)nc32)cc1 [Compound 77] | 10 to 100 nM
13 | c1ccc(N2CCc3c(-c4ccccn4)nc(N4CCOCC4)nc32)cc1 [Compound 90, 4-(7-phenyl-4-(pyridin-2-yl)-6,7-dihydro-5H-pyrrolo[2,3-d]pyrimidin-2-yl)morpholine] | 100 to 1000 nM
14 | c1cc(-c2nc(N3CCOCC3)nc3c(-c4ccncn4)c[nH]c23)ccn1 [Compound 137, 4-(4-(pyridin-4-yl)-7-(pyrimidin-4-yl)-6H-pyrrolo[3,2-d]pyrimidin-2-yl)morpholine] | 10 to 100 nM
15 | c1cncc(-c2nc(N3CCOCC3)nc3c2CCN3c2ccc3c(c2)OCCO3)c1 [Compound 103, 4-(7-(2,3-dihydrobenzo[b][1,4]dioxin-6-yl)-4-(pyridin-3-yl)-6,7-dihydro-5H-pyrrolo[2,3-d]pyrimidin-2-yl)morpholine] | < 10 nM
16 | N#Cc1cccc(N2CCc3c(OCc4cccnc4)nc(N4CCOCC4)nc32)c1 [Compound 4, 3-(2-morpholino-4-(pyridin-3-ylmethoxy)-5H-pyrrolo[2,3-d]pyrimidin-7(6H)-yl)benzonitrile] | 100 to 1000 nM
17 | c1ccc(Oc2nc(N3CCOCC3)nc3c2CCN3c2cccnc2)nc1 [Compound 58] | 100 to 1000 nM

Row | SMILES | IC50
18 | CC(=O)N1CCC(c2nc(N3CCOCC3)nc3c2CCN3c2ccccc2)CC1 [Compound 120, 1-(4-(2-morpholino-7-phenyl-6,7-dihydro-5H-pyrrolo[2,3-d]pyrimidin-4-yl)piperidin-1-yl)ethan-1-one] | 10 to 100 nM
19 | CN1CCCC(COc2nc(N3CCOCC3)nc3c2CCN3CC(C)(C)O)C1 (stereo not shown) [Compound 40, 2-methyl-1-(4-((1-methylpiperidin-3-yl)methoxy)-2-morpholino-6H-pyrrolo[2,3-d]pyrimidin-7(6H)-yl)propan-2-ol] | > 10000 nM
20 | c1ccc(N2CCc3c(C4CCNCC4)nc(N4CCOCC4)nc32)cc1 [Compound 111, 4-(7-phenyl-4-(piperidin-4-yl)-6,7-dihydro-5H-pyrrolo[2,3-d]pyrimidin-2-yl)morpholine] | 100 to 1000 nM
21 | CN1CCOC(COc2nc(N3CCOCC3)nc3c2CCN3c2cccnc2)C1 (stereo not shown) [Compound 12, 4-methyl-2-((2-morpholino-7-(pyridin-3-yl)-6,7-dihydro-5H-pyrrolo[2,3-d]pyrimidin-4-yloxy)methyl)morpholine] | 100 to 1000 nM
22 | CC(C)(C)OC(=O)N1CCC(N2CCc3c(OCc4cccnc4)nc(N4CCOCC4)nc32)CC1 [Compound 5, tert-butyl 4-(2-morpholino-4-(pyridin-3-ylmethoxy)-5H-pyrrolo[2,3-d]pyrimidin-7(6H)-yl)piperidine-1-carboxylate] | > 10000 nM
23 | c1cncc(N2CCc3c(OCC4CNC4)nc(N4CCOCC4)nc32)c1 [Compound 38, 4-(4-(azetidin-3-ylmethoxy)-7-(pyridin-3-yl)-6,7-dihydro-5H-pyrrolo[2,3-d]pyrimidin-2-yl)morpholine] | 100 to 1000 nM
24 | c1cncc(N2CCc3c(-c4ccnnc4)nc(N4CCOCC4)nc32)c1 [Compound 97] | 10 to 100 nM
25 | c1ccc(N2CCc3c(NC4COC4)nc(N4CCOCC4)nc32)cc1 [Compound 76, 2-morpholino-N-(oxetan-3-yl)-7-phenyl-6,7-dihydro-5H-pyrrolo[2,3-d]pyrimidin-4-amine] | > 10000 nM
26 | c1ccc(-c2c[nH]c3c(-c4ccncc4)nc(N4CCOCC4)nc23)nc1 [Compound 136, 4-(7-(pyridin-2-yl)-4-(pyridin-4-yl)-6H-pyrrolo[3,2-d]pyrimidin-2-yl)morpholine] | 10 to 100 nM
27 | c1ccc(-c2ccn(-c3nc(N4CCOCC4)nc4c3CCN4c3ccncc3)n2)cc1 [Compound 84, 4-(4-(3-phenyl-1H-pyrazol-1-yl)-7-(pyridin-4-yl)-6,7-dihydro-6H-pyrrolo[2,3-d]pyrimidin-2-yl)morpholine] | 10 to 100 nM
28 | c1ccc(N2CCc3c(OC4CCOC4)nc(N4CCOCC4)nc32)cc1 (stereo not shown) [Compound 22, 4-(7-phenyl-4-((tetrahydrofuran-3-yl)oxy)-6,7-dihydro-5H-pyrrolo[2,3-d]pyrimidin-2-yl)morpholine] | 100 to 1000 nM
29 | c1ccc(N2CCc3c(C4CCNC4)nc(N4CCOCC4)nc32)cc1 (stereo not shown) [Compound 116, 4-(7-phenyl-4-(pyrrolidin-3-yl)-6,7-dihydro-5H-pyrrolo[2,3-d]pyrimidin-2-yl)morpholine] | 10 to 100 nM
30 | COc1nc(N2CCOCC2)nc2c1CCN2c1ccccc1 [Compound 48, 4-(4-methoxy-7-phenyl-6,7-dihydro-5H-pyrrolo[2,3-d]pyrimidin-2-yl)morpholine] | 10 to 100 nM
31 | c1ccc(N2CCc3c(OCCc4ccccn4)nc(N4CCOCC4)nc32)cc1 [Compound 44, 4-(7-phenyl-4-(2-(pyridin-2-yl)ethoxy)-6,7-dihydro-5H-pyrrolo[2,3-d]pyrimidin-2-yl)morpholine] | 10 to 100 nM
32 | c1ccc(N2CCc3c(Oc4ccccn4)nc(N4CCOCC4)nc32)cc1 [Compound 49, 4-(7-phenyl-4-(pyridin-2-yloxy)-6,7-dihydro-5H-pyrrolo[2,3-d]pyrimidin-2-yl)morpholine] | 10 to 100 nM
33 | c1ccc(N2CCc3c(OCC4CCCO4)nc(N4CCOCC4)nc32)cc1 (stereo not shown) [Compound 29, 4-(7-phenyl-4-((tetrahydrofuran-2-yl)methoxy)-6,7-dihydro-5H-pyrrolo[2,3-d]pyrimidin-2-yl)morpholine] | 100 to 1000 nM

Same assay, conditions: values plotted in FIG. 7; read-out: PIKFYVE Biochemistry (IC50)

Row | SMILES | IC50
34 | O=c1ccn(Cc2nc(N3CCOCC3)cc(-n3nccc3-c3ccccc3)n2)cc1 | > 10000 nM
